Test results from US20260224524A1, “A PHARMACEUTICAL COMPOSITION TARGETING MUTANT P53 AND HER2” (DR DOZO LABORATORIES, priority 2023, published 2026).
Converted amounts (≈) assume the structure as drawn.

What was measured:
Format in all cases: cell-based
lung cancer cell = assay: Cell viability MTT assay of SACC fractions on lung cells; conditions: 24 h, read-out: inhibitory concentrations, lung cancer cell growth
Experimental: The effect of SACC fractions (peak 2, peak 3, peak 4 and peak 5) on viability of lung cells was determined by MTT assay.
Cells were seeded in 96 wells plate at a density of 1×10^4 per well in 200 μL of respective complete culture medium containing 10% FBS and 1% antibiotics. After 70% confluency, cells were treated with the respective doses (indicated in the graph) of SACC and its fraction in complete culture medium for 24 h. After incubation for a specified time at 37° C. in a humidified incubator, dye MTT (5 mg/mL in PBS; diluted in 10 mL of serum-free medium) was added to each well and incubated for 2 h, after which the plate was centrifuged at 1,000 rpm for 5 min at 4° C. After careful removal of the medium, 0.1 mL buffered DMSO was added to each well. The absorbance was recorded on a microplate reader at the wavelength of 540 nm. The effect SACC and its fraction on cell growth inhibition was assessed as percent cell viability, where vehicle-treated cells were taken as 100% viable.

[1] = test system: Human Breast Cancer Cell Line MDA-MB-231; assay: Growth inhibition (% control growth, LC50, TGI, GI50) MDA-MB-231
Experimental: The therapeutic effect of […] (peak 5) and SA2 (peak 4) is evaluated against human […] cancer cell line MDA-MB-231 by calculating the percentage growth inhibition, drug concentration of test compound needed to inhibit cell growth by 50% (GI50) values.
The therapeutic effect of SACC is evaluated against human […] cancer cell lines MDA-MB-231 by calculating the percentage growth inhibition, drug concentration of test compound needed to inhibit cell growth by 50% (GI50) values.

[2] = test system: Human Lung Cancer Cell Line A-549; assay: Growth inhibition (% control growth, LC50, TGI, GI50) A-549; conditions: A-549
Experimental: The therapeutic effect of SA1 (peak 5) and SA2 (peak 4) is evaluated against human lung cancer cell line A-549 by calculating the percentage growth inhibition, drug concentration of test compound needed to inhibit cell growth by 50% (GI50) values.
The therapeutic effect of SACC is evaluated against human lung cancer cell line A-549 by calculating the percentage growth inhibition, drug concentration of test compound needed to inhibit cell growth by 50% (GI50) values.

[3] = test system: Human Pancreatic Cancer Cell Line Mia-Pa-Ca-2; assay: Growth inhibition (% control growth, LC50, TGI, GI50) Mia-Pa-Ca-2; conditions: Mia-Pa-Ca-2
Experimental: The therapeutic effect of SA1 (peak 5) and SA2 (peak 4) is evaluated against human pancreatic cancer cell line Mia-Pa-Ca-2 by calculating the percentage growth inhibition, drug concentration of test compound needed to inhibit cell growth by 50% (GI50) values.
The therapeutic effect of SACC is evaluated against human […] cancer cell line Mia-Pa-Ca-2 by calculating the percentage growth inhibition, drug concentration of test compound needed to inhibit cell growth by 50% (GI50) values.

[4] = test system: Human Breast Cancer Cell Line MDA-MB-231; assay: Growth inhibition (% control growth, LC50, TGI, GI50) MDA-MB-231; conditions: Molar drug concentrations calculated from graph

With `Cc1ccc(O)oc1=O` (single isomer, unassigned) [SA2 (peak 4), 6-hydroxy-3-methyl-2H-pyran-2-one] the IC50 (lung cancer cell) was 1.02 µg/mL (≈ 8.09 µM), the “% Control Growth” value ([1]; 10^−4M, Average Values) was 27.9% and the “% Control Growth” value ([1]; 10^−4M, Experiment 1) was 50.1%. For the same molecule, the “% Control Growth” value ([1]; 10^−4M, Experiment 2) was 18.1%, the “% Control Growth” value ([1]; 10^−4M, Experiment 3) was 15.5% and the “% Control Growth” value ([1]; 10^−5M, Average Values) was 47.2%. The “% Control Growth” value ([1]; 10^−5M, Experiment 1) was 45.5%, the “% Control Growth” value ([1]; 10^−5M, Experiment 2) was 42.0% and the “% Control Growth” value ([1]; 10^−5M, Experiment 3) was 54.1%. The “% Control Growth” value ([1]; 10^−6M, Average Values) was 62.8%, the “% Control Growth” value ([1]; 10^−6M, Experiment 1) was 68.2% and the “% Control Growth” value ([1]; 10^−6M, Experiment 2) was 59.7%. The “% Control Growth” value ([1]; 10^−6M, Experiment 3) was 60.5%, the “% Control Growth” value ([1]; 10^−7M, Average Values) was 57.0% and the “% Control Growth” value ([1]; 10^−7M, Experiment 1) was 81.0%. The “% Control Growth” value ([1]; 10^−7M, Experiment 2) was 42.6%, the “% Control Growth” value ([1]; 10^−7M, Experiment 3) was 47.3% and the GI50 ([1]; Homo sapiens, Molar drug concentrations calculated from graph) was 2.38 µg/mL (≈ 18.9 µM). For the same molecule, the “% Control Growth” value ([2]; 10^−4M, Average Values) was 54.9%, the “% Control Growth” value ([2]; 10^−4M, Experiment 1) was 54.4% and the “% Control Growth” value ([2]; 10^−4M, Experiment 2) was 51.7%. The “% Control Growth” value ([2]; 10^−4M, Experiment 3) was 58.6%, the “% Control Growth” value ([2]; 10^−5M, Average Values) was 74.8% and the “% Control Growth” value ([2]; 10^−5M, Experiment 1) was 81.5%. For the same molecule, the “% Control Growth” value ([2]; 10^−5M, Experiment 2) was 72.0%, the “% Control Growth” value ([2]; 10^−5M, Experiment 3) was 70.9% and the “% Control Growth” value ([2]; 10^−6M, Average Values) was 77.4%. For the same molecule, the “% Control Growth” value ([2]; 10^−6M, Experiment 1) was 74.0%, the “% Control Growth” value ([2]; 10^−6M, Experiment 2) was 80.1% and the “% Control Growth” value ([2]; 10^−6M, Experiment 3) was 78.2%. For the same molecule, the “% Control Growth” value ([2]; 10^−7M, Average Values) was 77.3%, the “% Control Growth” value ([2]; 10^−7M, Experiment 1) was 80.0% and the “% Control Growth” value ([2]; 10^−7M, Experiment 2) was 76.9%. For the same molecule, the “% Control Growth” value ([2]; 10^−7M, Experiment 3) was 74.9%, the GI50 ([2]; Homo sapiens, A549, Molar drug concentrations calculated from graph) was 3.4 ng/mL (≈ 0.0269 µM) and the GI50 ([3]; Homo sapiens, MIA PaCa-2, Molar drug concentrations calculated from graph) was 0.301 ng/mL (≈ 0.00239 µM). For the same molecule, the “% Control Growth” value ([3]; 10^−4M, Average Values) was 40.5%, the “% Control Growth” value ([3]; 10^−4M, Experiment 1) was 40.0% and the “% Control Growth” value ([3]; 10^−4M, Experiment 2) was 36.6%. For the same molecule, the “% Control Growth” value ([3]; 10^−4M, Experiment 3) was 45.0%, the “% Control Growth” value ([3]; 10^−5M, Average Values) was 100.5% and the “% Control Growth” value ([3]; 10^−5M, Experiment 1) was 76.9%. The “% Control Growth” value ([3]; 10^−5M, Experiment 2) was 116.3%, the “% Control Growth” value ([3]; 10^−5M, Experiment 3) was 108.3% and the “% Control Growth” value ([3]; 10^−6M, Average Values) was 112.4%. The “% Control Growth” value ([3]; 10^−6M, Experiment 1) was 114.3%, the “% Control Growth” value ([3]; 10^−6M, Experiment 2) was 115.6% and the “% Control Growth” value ([3]; 10^−6M, Experiment 3) was 107.5%. The “% Control Growth” value ([3]; 10^−7M, Average Values) was 102.1%, the “% Control Growth” value ([3]; 10^−7M, Experiment 1) was 95.4% and the “% Control Growth” value ([3]; 10^−7M, Experiment 2) was 111.8%. For the same molecule, the “% Control Growth” value ([3]; 10^−7M, Experiment 3) was 99.0%, the TGI ([3]; Molar drug concentrations calculated from graph) was 0.1054 µg/mL (≈ 0.836 µM) and the TGI [4] was 0.1727 µg/mL (≈ 1.37 µM).

With `O=C1CC2=CC(O)=CC(=O)C2=CO1` (single isomer, unassigned) [peak 2, 6-hydroxy-3H-isochromene-3, 8(4H)-dione] the IC50 (lung cancer cell) was 1.04 µg/mL (≈ 5.84 µM).

With `Cc1ccc2[nH]cc(C(=O)O)c2c1` (single isomer, unassigned) [peak 3, 5-methyl-1H-indole-3-carboxylic acid] the IC50 (lung cancer cell) was 1.06 µg/mL (≈ 6.05 µM).
